Broadly, the inhibition is the change of the read-out against control, counted positive when it falls. Lower therefore signals a response near the control.

For this test, the system named is Naegleria gruberi. The test can be described thus: microbe, parasite or virus in culture. It is filed as functional. Conditions: NEG-M, CONC 10 uM; in the data active = inhibition of 80% or more and inactive = less.
Description: Growth inhibiting activity of Naegleria gruberi in vitro
Consider `Cc1cc(Cl)c(S(=O)(=O)N2CCCC2)cc1OCC(=O)NC1CCCCC1`, for which the inhibition at 10 µM is recorded as 11% (not active).

`COC(=O)Nc1nc2cc(C(=O)c3ccccc3)ccc2[nH]1` [MEBENDAZOLE]: the inhibition at 10 µM is 29.8% (not active).

`O=C(C1CCCCC1)N1CC(=O)N2CCc3ccccc3C2C1` (stereo unspecified) [PRAZIQUANTEL]: the inhibition at 10 µM is on record as 41.5% (not active).

Turning to `Cc1nc2ccccn2c1C(=O)NCc1ccc(Cl)cc1`, the inhibition at 10 µM is reported as 37.8% (not active).

Consider `CNc1snc(C)c1C(=O)NCCOc1ccc(OC)cc1`, for which the inhibition at 10 µM is 40.5% (not active).

For `Nc1ncnc2c1ncn2C[C@@H](O)[C@@H](O)C(=O)O` [ERITADENINE], the inhibition at 10 µM is listed as 36.3% (not active).

Take `COCC(C)NC(=O)CSc1ncnc2sc(-c3ccccc3)cc12` (stereo unspecified): the inhibition at 10 µM is 45.7% (not active).

As to `CCc1ccc(C(NCc2nc(N)nc(N(C)C)n2)C(C)C)cc1` (stereo unspecified), the inhibition at 10 µM is given as 18.9% (not active).

In the case of `Cc1nc(-c2ccccn2)nc(N(C)CCc2ccccc2)c1Cl`, the inhibition at 10 µM is listed as 21.1% (not active).

`COc1ccccc1OCCCCn1c(C2CC2)nc2ccccc21`: the inhibition at 10 µM was 42.6% (not active).

As for `CO[C@@H]1CN(c2ccc(C#CC3(O)CN4CCC3CC4)c(Cc3ccccc3)n2)C[C@H]1O` (stereo partly specified), the inhibition at 10 µM is reported as 0% (not active).

Turning to `COc1ccc(C2=NN(C3CCCCCC3)C(=O)[C@@H]3CC=CC[C@H]23)cc1OCCCCOc1ccc(-c2nnn[nH]2)cc1`, the inhibition at 10 µM is 30.2% (not active).

Consider `CCN(CC)CCCN1CCN(C(=O)c2cccc(-c3noc(C(F)(F)F)n3)c2)CC1`, for which the inhibition at 10 µM is recorded as 13% (not active).

On to `CC(C)(C)c1cc(C(=O)N2CCN(c3nccnc3C#N)CC2)n(Cc2ccccc2)n1`, for which the inhibition at 10 µM is 31.6% (not active).

In the case of `Cc1cc(C2=NOC(c3cc(Cl)c(F)c(Cl)c3)(C(F)(F)F)C2)ccc1C(=O)NCc1ccc2c(c1)C(C)(C)OB2O` (stereo unspecified), the inhibition at 10 µM is on record as 47.6% (not active).

Turning to `c1ccc(-c2[nH]c3ccccc3c2C(c2ccccn2)N2CCCC2)cc1` (stereo unspecified), the inhibition at 10 µM is listed as 32.7% (not active).

With `CC(=O)N1CCc2cc3nc(C)cc(C)c3cc21`, the inhibition at 10 µM is 19.9% (not active).

For `O=C([C@@H](c1ccc(Cl)cc1)c1cccnc1)N1CCN(c2ccc(C(F)(F)F)cc2)CC1`, the inhibition at 10 µM is on record as 75.6% (not active).

For `C[C@H](c1ccc2c(c1)CCCC2)N(C)c1ncc2c(N)nc(N)nc2n1`, the inhibition at 10 µM is given as 29.6% (not active).

For the compound `O=C(NCc1nnc2n1CCCCC2)c1ccc(-c2ccc(F)cc2)o1`, the inhibition at 10 µM is 29.3% (not active).

Take `OC[C@H]1O[C@@H](n2c3ccc(Cl)cc3c3c(-c4cc5ccccc5o4)ncnc32)C(O)[C@H]1O` (stereo partly specified): the inhibition at 10 µM is 17.3% (not active).

For `CCNC(=O)C(C)Nc1nc(-c2cccnc2)nc2sc(C)c(C)c12` (stereo unspecified), the inhibition at 10 µM is recorded as 12.2% (not active).

With `CN1CCN(c2nccc3nc(-c4ccc(F)c(F)c4)[nH]c23)CC1`, the inhibition at 10 µM was 35% (not active).

As for `COc1cccc(-c2nc3c(N4CCCC4)cccc3n2CC2CCCN2)n1` (stereo unspecified), the inhibition at 10 µM is given as 51.5% (not active).

With `N#CCN(CCCCN1CCN(c2ccc(F)cc2)CC1)C(=O)OCc1ccccc1`, the inhibition at 10 µM is listed as 21.3% (not active).

With `Cc1ccc2oc(-c3cc(NC(=O)Cc4ccccc4)ccc3Cl)nc2c1`, the inhibition at 10 µM was 44.5% (not active).

Consider `COc1ccc(-c2cnc3ccc(N4CCCC4)nn23)cc1OC`, for which the inhibition at 10 µM is reported as 51.2% (not active).

For the compound `COc1cc(Br)cc2cc(C(=O)Nc3cccc(C(F)(F)F)c3)c(=O)oc12`, the inhibition at 10 µM is given as 21% (not active).

Take `O=C(C1CCN(c2nnnn2-c2ccccc2)CC1)N1CCc2ccccc2C1`: the inhibition at 10 µM is recorded as 25.8% (not active).

Turning to `COc1ccc(C2(C(=O)Nc3ccc(Br)cc3)CCCC2)cc1`, the inhibition at 10 µM is reported as 11.1% (not active).

On to `Clc1ccc(CCNc2cc(-c3ccccc3)nc3ncnn23)cc1`, for which the inhibition at 10 µM was 44.5% (not active).

For the origin of these results see ChEMBL document CHEMBL4513101, “Naegleria gruberi Pathogen Box compounds screening” (2021).
